Source: the supplement of paper PMC11061612

Columns and labels:
Dasatinib = compound: CC1=C(C(=CC=C1)Cl)NC(=O)C2=CN=C(S2)NC3=CC(=NC(=N3)C)N4CCN(CC4)CCO [Dasatinib]; conditions: max 2 µM
Summary of the method: (§1)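 Plates with 1536 wells received cancer cell lines in 7.5 μl of DMEM/F12 or RPMI containing 10% FBS. After 24 hours at 37°C and 5% CO2, cells were dosed for 72 hours with final DMSO typically 0.2%, and viability was read by CellTiter-Glo 2.0 luminescence scaled between blank-well and DMSO-well means. The single-agent IC50 was taken from a logistic fit of the dose responses made with a non-linear mixed effects model, that logistic curve having two parameters.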

Palbociclib = compound: CC(=O)c1c(C)c2cnc(Nc3ccc(N4CCNCC4)cn3)nc2n(C2CCCC2)c1=O [Palbociclib]; conditions: max 10 µM
Summary of the method: as §1

AZD7648 = compound: Cc1cc2ncnn2cc1Nc1ncc2c(n1)n(C1CCOCC1)c(=O)n2C [AZD7648]; conditions: max 10 µM
Summary of the method: as §1

AZD5991 = compound: Cc1c2c(nn1C)CSCc1cc(n(C)n1)CSc1cc(c3ccccc3c1)OCCCc1c(C(=O)O)n(C)c3c-2c(Cl)ccc13 [AZD5991]; conditions: max 1 µM
Summary of the method: as §1

Etoposide = compound: COc1cc([C@@H]2c3cc4c(cc3[C@@H](O[C@@H]3O[C@@H]5CO[C@@H](C)O[C@H]5[C@H](O)[C@H]3O)[C@H]3COC(=O)[C@H]23)OCO4)cc(OC)c1O [Etoposide]; conditions: max 10 µM
Summary of the method: as §1

Crizotinib = compound: C[C@@H](Oc1cc(-c2cnn(C3CCNCC3)c2)cnc1N)c1c(Cl)ccc(F)c1Cl [Crizotinib]; conditions: max 10 µM
Summary of the method: as §1

Gemcitabine = compound: Nc1ccn([C@@H]2O[C@H](CO)[C@@H](O)C2(F)F)c(=O)n1 [Gemcitabine]; conditions: max 0.3 µM
Summary of the method: as §1

AZD5363 = compound: C1CN(CCC1(C(=O)N[C@@H](CCO)C2=CC=C(C=C2)Cl)N)C3=NC=NC4=C3C=CN4 [AZD5363]; conditions: max 10 µM
Summary of the method: as §1

Selumetinib = compound: Cn1cnc2c(F)c(Nc3ccc(Br)cc3Cl)c(C(=O)NOCCO)cc21 [Selumetinib]; conditions: max 10 µM
Summary of the method: as §1

AZD8186 = compound: C[C@@H](Nc1cc(F)cc(F)c1)c1cc(C(=O)N(C)C)cc2c(=O)cc(N3CCOCC3)oc12 [AZD8186]; conditions: max 10 µM
Summary of the method: as §1

Doxorubicin = compound: COc1cccc2c1C(=O)c1c(O)c3c(c(O)c1C2=O)C[C@@](O)(C(=O)CO)C[C@@H]3O[C@H]1C[C@H](N)[C@H](O)[C@H](C)O1 [Doxorubicin]; conditions: max 1 µM
Summary of the method: as §1

SRA737 = compound: N#Cc1cnc(Nc2cc(NC[C@H]3CNCCO3)c(C(F)(F)F)cn2)cn1 [SRA737]; conditions: max 10 µM
Summary of the method: as §1

AZD1390 = compound: CC(C)n1c(=O)n(C)c2cnc3cc(F)c(-c4ccc(OCCCN5CCCCC5)nc4)cc3c21 [AZD1390]; conditions: max 0.3 µM
Summary of the method: as §1

Olaparib = compound: O=C(c1cc(Cc2n[nH]c(=O)c3ccccc23)ccc1F)N1CCN(C(=O)C2CC2)CC1 [Olaparib]; conditions: max 10 µM
Summary of the method: as §1

Prexasertib = compound: COc1cccc(OCCCN)c1-c1cc(Nc2cnc(C#N)cn2)n[nH]1 [Prexasertib]; conditions: max 1 µM
Summary of the method: as §1

SG3199 = compound: CC1=CN2[C@@H](C1)C=NC3=CC(=C(C=C3C2=O)OC)OCCCCCOC4=C(C=C5C(=C4)N=C[C@@H]6CC(=CN6C5=O)C)OC [SG3199]; conditions: max 0.001 µM
Summary of the method: as §1

AZD1775 = compound: C=CCn1c(=O)c2cnc(Nc3ccc(N4CCN(C)CC4)cc3)nc2n1-c1cccc(C(C)(C)O)n1 [AZD1775]; conditions: max 3 µM
Summary of the method: as §1

Taselisib = compound: Cc1nc(-c2cn3c(n2)-c2ccc(-c4cnn(C(C)(C)C(N)=O)c4)cc2OCC3)n(C(C)C)n1 [Taselisib]; conditions: max 10 µM
Summary of the method: as §1

Savolitinib = compound: C[C@@H](c1ccc2nccn2c1)n1nnc2ncc(-c3cnn(C)c3)nc21 [Savolitinib]; conditions: max 1 µM
Summary of the method: as §1

AZD2811 = compound: CCN(CCO)CCCOc1ccc2c(Nc3cc(CC(=O)Nc4cccc(F)c4)[nH]n3)ncnc2c1 [AZD2811]; conditions: max 1 µM
Summary of the method: as §1

AZD6738 = compound: C[C@@H]1COCCN1C2=NC(=NC(=C2)C3(CC3)[S@](=N)(=O)C)C4=C5C=CNC5=NC=C4 [AZD6738]; conditions: max 10 µM
Summary of the method: as §1

AZD4320 = compound: CN(CC[C@H](CSC1=CC=CC=C1)NC2=C(C=C(C=C2)S(=O)(=O)NC(=O)C3=CC=C(C=C3)N4CCC(CC4)[C@H](C5=CC=CC=C5C6=CC=C(C=C6)Cl)O)S(=O)(=O)C(F)(F)F)CCO [AZD4320]; conditions: max 1 µM
Summary of the method: as §1

AZD5153 = compound: COc1nnc2ccc(N3CCC(c4ccc(OCCN5CCN(C)C(=O)[C@H]5C)cc4)CC3)nn12 [AZD5153]; conditions: max 1 µM
Summary of the method: as §1

Alisertib = compound: COc1cc(Nc2ncc3c(n2)-c2ccc(Cl)cc2C(c2c(F)cccc2OC)=NC3)ccc1C(=O)O [Alisertib]; conditions: max 10 µM
Summary of the method: as §1

Paclitaxel = compound: CC(=O)O[C@H]1C(=O)[C@@]2(C)[C@H]([C@H](OC(=O)c3ccccc3)[C@]3(O)C[C@H](OC(=O)[C@H](O)[C@@H](NC(=O)c4ccccc4)c4ccccc4)C(C)=C1C3(C)C)[C@]1(OC(C)=O)CO[C@@H]1C[C@@H]2O [Paclitaxel]; conditions: max 3 µM
Summary of the method: as §1

Venetoclax = compound: CC1(C)CCC(CN2CCN(c3ccc(C(=O)NS(=O)(=O)c4ccc(NCC5CCOCC5)c([N+](=O)[O-])c4)c(Oc4cnc5[nH]ccc5c4)c3)CC2)=C(c2ccc(Cl)cc2)C1 [Venetoclax]; conditions: max 1 µM
Summary of the method: as §1

Lapatinib = compound: CS(=O)(=O)CCNCc1ccc(-c2ccc3ncnc(Nc4ccc(OCc5cccc(F)c5)c(Cl)c4)c3c2)o1 [Lapatinib]; conditions: max 10 µM
Summary of the method: as §1

SN-38 = compound: CCc1c2c(nc3ccc(O)cc13)-c1cc3c(c(=O)n1C2)COC(=O)[C@]3(O)CC [SN-38]; conditions: max 0.3 µM
Summary of the method: as §1

MK-2206 = compound: NC1(c2ccc(-c3nc4ccn5c(=O)[nH]nc5c4cc3-c3ccccc3)cc2)CCC1 [MK-2206]; conditions: max 10 µM
Summary of the method: as §1

5-Fluorouracil = compound: O=c1[nH]cc(F)c(=O)[nH]1 [5-Fluorouracil]; conditions: max 20 µM
Summary of the method: as §1

Trametinib = compound: CC(=O)Nc1cccc(-n2c(=O)n(C3CC3)c(=O)c3c(Nc4ccc(I)cc4F)n(C)c(=O)c(C)c32)c1 [Trametinib]; conditions: max 1 µM
Summary of the method: as §1

Gefitinib = compound: COc1cc2ncnc(Nc3ccc(F)c(Cl)c3)c2cc1OCCCN1CCOCC1 [Gefitinib]; conditions: max 10 µM
Summary of the method: as §1

Carboplatin = compound: C1CC(C1)(C(=O)[O-])C(=O)[O-].N.N.[Pt+2] [Carboplatin]; conditions: max 10 µM
Summary of the method: as §1

AZD0156 = compound: CN(C)CCCOc1ccc(-c2ccc3ncc4c(c3c2)n(C2CCOCC2)c(=O)n4C)cn1 [AZD0156]; conditions: max 3 µM
Summary of the method: as §1

[1] = compound: O=C(Nc1ccc2[nH]nc(-c3ccncc3)c2c1)[C@@H]1CCN(CC(=O)N2CCN(c3ccc(-c4ncccn4)cc3)CC2)C1; conditions: max 5 µM
Summary of the method: as §1

IM-9 (Non-Cancerous)
IC50, cell viability 72 h (Dasatinib): > 2000 nM | IC50, cell viability 72 h (Palbociclib): 4920 nM | IC50, cell viability 72 h (AZD7648): > 10000 nM | IC50, cell viability 72 h (AZD5991): 667 nM | IC50, cell viability 72 h (Etoposide): 97.4 nM | IC50, cell viability 72 h (Crizotinib): 819 nM | IC50, cell viability 72 h (Gemcitabine): 1.97 nM | IC50, cell viability 72 h (AZD5363): 6700 nM | IC50, cell viability 72 h (Selumetinib): 218 nM | IC50, cell viability 72 h (AZD8186): > 10000 nM | IC50, cell viability 72 h (Doxorubicin): 52.8 nM | IC50, cell viability 72 h (SRA737): 1520 nM | IC50, cell viability 72 h (AZD1390): > 300 nM | IC50, cell viability 72 h (Olaparib): > 10000 nM | IC50, cell viability 72 h (Prexasertib): 12.4 nM | IC50, cell viability 72 h (SG3199): > 1 nM | IC50, cell viability 72 h (AZD1775): 205 nM | IC50, cell viability 72 h (Taselisib): > 10000 nM | IC50, cell viability 72 h (Savolitinib): > 1000 nM | IC50, cell viability 72 h (AZD2811): 71.3 nM | IC50, cell viability 72 h (AZD6738): 1040 nM | IC50, cell viability 72 h (AZD4320): 769 nM | IC50, cell viability 72 h (AZD5153): 89.4 nM | IC50, cell viability 72 h (Alisertib): 26.5 nM | IC50, cell viability 72 h (Paclitaxel): 4.97 nM | IC50, cell viability 72 h (Venetoclax): > 1000 nM | IC50, cell viability 72 h (Lapatinib): 7530 nM | IC50, cell viability 72 h (SN-38): 2.53 nM | IC50, cell viability 72 h (MK-2206): > 10000 nM | IC50, cell viability 72 h (5-Fluorouracil): 5020 nM | IC50, cell viability 72 h (Trametinib): 6.11 nM | IC50, cell viability 72 h (Gefitinib): > 10000 nM | IC50, cell viability 72 h (Carboplatin): > 10000 nM | IC50, cell viability 72 h (AZD0156): > 3000 nM | IC50, cell viability 72 h [1]: 72.7 nM
